Assay results taken from patent US8987486B2, “Trans-2-decenoic acid derivative and pharmaceutical agent containing the same” (Nagoya Industrial Science Research Institute, priority 2010, dated 2015).

Columns and labels:
MAP kinase = assay: Activation (phosphorylation) of MAP kinase by Western immunoblotting in cultured cerebral cortex nerve cells; assay type: cell-based, rat; details: for Ratio of pMAPK to MAPK: Test Example 6, relative to control (0 μg/mL = 1.0)
Experimental: With regard to the compound 1 ((E)-2-(dimethylamino)-ethyl dec-2-enoate), activation of MAP kinase was measured as follows by a Western immunoblotting.
Nerve cells were dispersed from cerebral cortex of a fetal rat of 17 days age and said nerve cells were cultured for one day in a Dulbecco-modified Eagle medium (DMEM) containing 5% fetal bovine serum. The culture medium was exchanged with a serum-free medium (B27 supplement-added Neurobasal; Invitrogen) and the nerve cells were cultured at the density of 20,000 to 40,000 cells per cm^2 in a culture dish coated with polyornithine.
After three days, the compound 1 was added and the culture was continued for 30 minutes. After that, the cells were recovered on ice using a solution containing a phosphatase inhibitor where Tris-HCl buffer was a base. Protein concentration of the resulting cell extract was quantified using a BCA Protein Assay Kit (Takara Bio KK) and a certine amount of protein (3 μg for the measurement of MAP kinase and 5 μg for the measurement of phosphorylated MAP kinase) was subjected to polyacrylamide gel electrophoresis. The protein was transcribed from the gel after the electrophoresis to a PVDF membrane and a Western immunoblotting was carried out using each of an anti-MAP kinase antibody (Cell Signaling Technology) and an anti-phosphorylated MAP kinase antibody (Cell Signaling Technology) of the primary antibody.
After that, the reaction with an alkaline phosphatase-labeled anti-rabbit IgG antibody (Promega) of the secondary antibody was carried out so that the enzymatic activity was colorized whereupon the MAP kinase and the phosphorylated MAP kinase were measured.
Incidentally, the compound 1 was adjusted to the concentrations of 10 μg/ml, 30 μg/ml, 100 μg/ml and 300 μg/ml by dissolving in 0.1% DMSO. With regard to the control, 0.1% DMSO was added.
Intensity of the concentration of the above-obtained band of the gel subjected to electrophoresis was calculated and quantified using Image J (K. K. Bioarts). The numerical value for the MAP kinase using the compound 1 was divided by the numerical value for the MAP kinase of the control and, further, the numerical value for the phosphorylated MAP kinase using the compound 1 was divided by the numerical value for the phosphorylated MAP kinase of the control whereupon the ratio of the MAP kinase using the compound 1 to the control and the ratio of the phosphorylated kinase using the compound 1 to the control were determined.
After that, the resulting ratio of the phosphorylated MAP kinase to the control was divided by the resulting ratio of the MAP kinase to the control to determine the ratio of the phosphorylated MAP kinase to the MAP kinase (cf. Table 5). In Table 5, “MAPK” means a MAP kinase and “pMAPK” means a phosphorylated MAP kinase. “10”, “30”, “100” and “300” in Table 5 show the examples where 10 μg/ml, 30 μg/ml, 100 μg/ml and 300 μg/ml of the compound 1 were added.
MAP kinase and phosphorylated MAP kinase were measured for the compound 6 ((E)-2-(diethylamino)ethyl dec-2-enoate) and the compound 13 ((E)-2-(2-(diethylamino)ethoxy)ethyl dec-2-enoate) by the same method as in Test Example 1.
Each of the compounds 6 and 13 was dissolved in 0.1% DMSO to adjust to the concentration of 250 μg/ml. With regard to the control, 0.1% DMSO was added. With regard to the concentration of the resulting band of the gel subjected to electrophoresis, its intensity was calculated by the same method as in Test Example 1 using Image J (K. K. Bioarts) and the ratio of the phosphorylated MAP kinase to the control was divided by the resulting ratio of the MAP kinase to the control whereupon the ratio of the phosphorylated MAP kinase to the MAP kinase was determined (cf. Table 6).
With regard to the compound of the present invention, its activation for MAP kinase was measured by the same manner as in Test Example 1.
Each compound was dissolved in 0.1% DMSO to adjust to the concentrations of 30 μg/ml, 60 μg/ml, 125 μg/ml and 250 μg/ml. […]

[1] = system: paclitaxel-induced peripheral nerve disorder rats; assay: von Frey test in paclitaxel-induced peripheral nerve disorder rats; assay type: in vivo; details: Rattus norvegicus, ip; single intraperitoneal dose of 300 μ/kg; higher of the thresholds after 1 hour and 5 hours; normal threshold 15; read-out: Recovery rate of 50% reaction threshold value (%)
Experimental: The effect of the compound of the present invention was tested for a peripheral nerve disorder which is a side effect induced by the administration of paclitaxel (an anti-cancer agent) such as hyperesthesia including allodynia (severe pain induced by such tactile stimuli which usually cause no pain). The compound of the present invention was intraperitoneally administered to rats as a test drug to conduct a von Frey test.
Male SD rats of six weeks age (one group comprising six rats) were used as experimental animals and paclitaxel (2 mg/kg) was intraperitoneally administered every other day for four times in total to prepare paclitaxel-induced peripheral nerve disorder rats. During 18 and 25 days or during 20 to 27 days after initiation of paclitaxel administration, the test drug was intraperitoneally administered in a single dose of […] and the following von Frey test was conducted.
The rats of the above (1) were placed in a transparent acrylic cage with a wire-meshed floor and habituated for about three minutes and the 50% reaction threshold values to the mechanical stimulus of right hind limb were measured before administration of the test drug and after 1, 5 and 24 hours from initiation of the administration.
The measurement was conducted using von Frey filaments (manufactured by North Coast Medical Inc.) in accordance with the methods of Chaplan, et al. (Journal of Neuroscience Methods, vol. 53, no. 1, pages 55 to 63, 1994) and Dixon, et al. (Annual Review of Pharmacology and Toxicology, vol. 20, pages 441 to 462, 1980). […] The case where the rat escaped at the instance of removing the filament was also called positive. When the positive reaction was noted, stimulus was conducted similarly using a filament of one rank weaker while, when no reaction was noted, stimulus was conducted similarly using a filament of one rank stronger and the point when the reaction changed from negative to positive or from positive to negative was called the first two reactions. After that, stimulus was conducted for continuous four times by the same up-down method. A 50% reaction threshold value to the mechanical stimulus was measured using the reaction to the six stimuli in total and then (mean value)±(standard error) for each group was calculated. Incidentally, when stimulus reached by that of 15.0 g without positive reaction or, when positive reaction continued to 0.4 g, then 15.0 g or 0.25 g was adopted as each threshold value, respectively. With regard to the higher 50% reaction threshold value between the 50% threshold values after 1 hour and 5 hours from administration of a test drug, a recovery rate (%) of the 50% reaction threshold value was calculated by the following expression in which 15 was adopted as the normal threshold value. Recovery rate (%) of 50% reaction threshold value=[(50% reaction threshold value after 1 hour or 5 hours from administration of test drug)−(50% reaction threshold value before administration of test drug)]/[(Normal threshold value)−(50% reaction threshold value before administration of test drug)]

PC12 cells = assay: Evaluation using PC12 cells; immunostaining method for MAPK phosphorylation; assay type: cell-based; details: 30 minutes
Experimental: PC12 cells were stimulated using the compound of the present invention and the phosphorylation of MAPK was evaluated by means of immunostaining of the cells. The specific operation procedure is as follows.
A cover glass was placed on a 24-well plate followed by coating with poly-L-lysine. PC12 cells were seeded in a cell density of 50,000 cells/well. (The amount of the medium was 400 μL) On the first day after seeding the cells, the medium was exchanged to DMEM containing 1% fetal bovine serum (FBS) and 0.06% L-glutamine.
The compound which was previously diluted with DMSO was dissolved in 100 μl of medium. After 12 to 16 hours from the medium exchange, 100 μl out of 400 μl of the medium was removed from each well and, in place of that, 100 μl of a medium containing the compound was added.
After 30 minutes from the addition, fixation was conducted using 4% paraformaldehyde (PFA) for 10 minutes. The fixed cells were washed with a Tris-buffered saline (TBS) and a TBS containing 0.3% Triton X was added thereto followed by incubating at 37° C. for 30 minutes. This was washed with a TBS and blocked with a TBS containing 3% skim milk for 30 minutes (at room temperature).
This was washed with a TBS for one time and a primary antibody (anti-phospho-p42/44 MAPK antibody; cell signalings; #9102 being diluted with TBS to an extent of 1,000-fold) was added thereto followed by subjecting to the reaction at 4° C. for one night. The primary antibody was removed and washed with a TBS for three times. After that, the secondary antibody (Alexa 488 goat anti-rabbit antibody; Invitrogen: being diluted to an extent of 1,000-fold using a TBS containing 1% Block Ace) was added thereto and the reaction was conducted at room temperature for 3 hours. The secondary antibody was removed and, after washing with a TBS, fixation was conducted with 4% PFA for 1 hour.
This was washed with a TBS, Hoechst (diluted with a TBS to an extent of 2000-fold) was added thereto and nuclear staining was conducted. This was washed and mounted.
Taking the photographic pictures and counting the positive cells were conducted as follows. An all-in-one microscope (manufactured by Keyence) was used, exposing time for pMAPK (green) was made 1/2.8 s, the place was appropriately decided in a Hoechst-stained image and the pictures were taken. Four pictures per one glass sheet were taken.
Photoshop (Adobe) was used and the cells having above a certain luminance were judged to be positive. All cells were labeled using Hoechst 33342 manufactured by Invitrogen and the rate of pMAPK-positive cells in Hoechst-positive cells was calculated. (cf. Table 7)

Compound	Ratio of pMAPK to MAPK (MAP kinase; 60 μg/mL)	Ratio of pMAPK to MAPK (MAP kinase; 125 μg/mL)	Ratio of pMAPK to MAPK (MAP kinase; 250 μg/mL)	inhibition in vivo at 0.3 mg/kg [1] [%]	Ratio of pMAPK to MAPK (MAP kinase; 30 μg/mL)	pMAPK/MAPK/Control (MAP kinase; 250 μg/ml, Test Example 2, control = 1.00)	Rate of pMAPK-positive cells (%) (PC12 cells; 62.5 μg/mL)	Rate of pMAPK-positive cells (%) (PC12 cells; 125 μg/mL)	Rate of pMAPK-positive cells (%) (PC12 cells; 250 μg/mL)	Rate of pMAPK-positive cells (%) (PC12 cells; 500 μg/mL)
CCCCCCC/C=C/C(=O)SCCN(CC)CC [Compound 56, (E)-S-2-(diethylamino)ethyl dec-2-enethioate]	5.0	7.4	5.7	60.5	–	–	–	–	–	–
CCCCCCC/C=C/C(=O)OCCOCCN(CC)CC [Compound 13, (E)-2-(2-(diethylamino)ethoxy)ethyl dec-2-enoate]	3.1	1.3	–	–	2.6	1.46	35	35	52	–
CCCCCCC/C=C/C(=O)OCCCCN(C)C [Compound 4, (E)-4-(dimethylamino)butyl dec-2-enoate]	3.2	20.6	–	–	2.2	–	12	27	64	81
